# Tested on: HIV-1 (HIV-1 RF, HIV-1 NL4-3) in CEM-SS / MT-2 cells
# Assay: Cytopathic effect (CPE) inhibition assay (XTT/MTT dye reduction)
# Assay type: cell-based
# Conditions: Human immunodeficiency virus 1, NL43; read-out: Ave CPE EC50
# Description: T-cell lines, CEM-SS, and MT-2, and viruses HIV-1 RF and HIV-1 NL4-3 (pNL4-3) were obtained from the National Institutes of Health (AIDS Research and Reference Reagent Program, Bethesda, Md.).
# Cytopathic Effect (CPE) Inhibition Assays
# The ability of compounds to protect cells against HIV infection was measured by the […] dye reduction method, essentially as described (See Pauwels, R. Balzarini, J. Baba, M. Snoeck, R. Schols, D. Herdewijn, P. Desmyter, J. and De Clercq, E. 1988, “Rapid and automated tetrazolium-based colorimetric assay for the detection of anti-HIV compounds,”. J Virol. Methods., 20: 309–321 and Weislow, O. S. Kiser, R. Fine, D. L. Bader, J. Shoemaker, R. H. and Boyd, M. R. 1989. “New soluble-formazan assay for HIV-1 cytopathic effects: application to high-flux screening of synthetic and natural products for AIDS-antiviral activity”. J. Natl. Cancer Inst. 81:577–586). Subject cells were infected with test virus at an moi of 0.025 to 0.819 or mock infected with medium only and added at 2×10^4 cells per well into 96 well plates containing half-log dilutions of test compounds. Six days later, 50 μl of XTT (1 mg/ml XTT tetrazolium, 0.02 nM phenazine methosulfate) was added to the wells and the plate was reincubated for four hours. Viability, as determined by the amount of XTT formazan produced, was quantified spectrophotometrically by absorbance at 450 nm. Data from CPE assays were expressed as the percent of formazan produced in compound-treated cells compared to formazan produced in wells of uninfected, compound-free cells. The fifty percent effective concentration (EC50) was calculated as the concentration of compound that effected an increase in the percentage of formazan production in infected, compound-treated cells to 50% of that produced by uninfected, compound-free cells. The 50% cytotoxicity concentration (CC50) was calculated as the concentration of compound that decreased the percentage of formazan produced in uninfected, compound-treated cells to 50% of that produced in uninfected, compound-free cells. The therapeutic index was calculated by dividing the cytotoxicity (CC50) by the antiviral activity (EC50).
row,Compound,EC50 [µM]
1,"Cc1cc(O)c(C)c(C(=O)N[C@@H](Cc2ccccc2)[C@H](O)C(=O)N2CC(F)(F)C(C)(C)[C@H]2C(=O)NCC(F)(F)F)c1 [Example D6, (S)-4,4-Difluoro-1-[(2S,3S)-2-hydroxy-3-(3-hydroxy-2,5-dimethyl-benzoylamino)-4-phenyl-butyryl]-3,3-dimethyl-pyrrolidine-2-carboxylic acid (2,2,2-trifluoro-ethyl)-amide]",0.018

# Biological target: T1, HIV-1 protease (Q7S mutant form) (Human immunodeficiency virus type 1 group M subtype B, UniProt P04585, Q495S)
# T1 construct: made in house
# Assay: HIV-1 Protease RET assay
# Assay type: biochemical
# Conditions: Ave. Ki (nM), RET assay, Q7S enzyme, Morrison tight binding fit
# Description: Ki's for the inhibitors of HIV-1 protease were determined using a resonance energy transfer (RET) assay. […] This enzyme is first partially purified as inclusion bodies from cell lysate. It is then solublized in 8M urea and passed through a Q-Sepharose column (Pharmacia) for further purification. To refold this protein, samples containing Q7S is dialyzed into 50 mM sodium phosphate pH 7.0, 50 mM NaCl, 10 mM DTT, and 10% glycerol.
# The commercially available peptide substrate (Molecular Probes Cat. # H-2930) RE(EDANS)SQNYPIVQK(DABCYL)R is used to assess activity and Ki's. This peptide is cleaved quantitatively by HIV-1 Pr at the Tyr-Pro bond. The EDANS fluorophore absorbs at 340 nm and emits at 490 nm. The reaction is carried out in a 96 well plate in a total volume of 100 µL and is run for 12 minutes at 37 C under steady-state conditions with 5 µM substrate and 2 nM active dimer enzyme concentration. The literature value Km for this substrate and enzyme is 103+/−8 µM (See Matayoshi, et al., “Novel Fluorogenic Substrates for Assaying Retroviral Proteases by Resonance Energy Transfer,” Science 247, 954 (1990)). The buffer for this reaction is 0.1M sodium acetate pH 4.8, 1M NaCl, 1 mM EDTA, 5 mM dithiothreitol, 10% dimethyl sulfoxide and 1 mg/ml bovine serum albumin. Inhibition curves are fit using the Morrison tight binding equation.
row,Compound,Ki [nM]
1,"Cc1c(O)cccc1C(=O)N[C@@H](Cc1ccccc1)[C@H](O)C(=O)N1CSC(C)(C)[C@H]1C(=O)NCc1nc2ccccc2[nH]1 [Example A60, (R)-3-[(2S,3S)-2-Hydroxy-3-(3-hydroxy-2-methyl-benzoylamino)-4-phenyl-butyryl]-5,5-dimethyl-thiazolidine-4-carboxylic acid (1H-benzoimidazol-2-ylmethyl)-amide]",66.6
2,"Cc1ccccc1CNC(=O)[C@H]1N(C(=O)C(O)C(Cc2ccccc2)NS(=O)(=O)c2ccc(C#N)cc2)CSC1(C)C (stereo partly drawn) [Example B58, 3-[(2S,3S)-3-(4-Cyano-benzenesulfonylamino)-2-hydroxy-4-phenyl-butyryl]-5,5-dimethyl-thiazolidine-carboxylic acid 2-methyl-benzylamide]",240
3,"CC1(C)SCN(C(=O)[C@@H](O)[C@H](Cc2ccccc2)NC(=O)NCc2ccccc2C(F)(F)F)[C@@H]1C(=O)NCc1ccccc1C(F)(F)F [Example B52, 3-{(2S,3S)-2-Hydroxy-4-phenyl-3-[3-(2-trifluoromethyl-benzyl)-ureido]-butyryl}-5,5-dimethyl-thiazolidine-4-carboxylic acid 2-trifluoromethyl-benzylamide]",120
4,"C#CCOC(=O)N[C@@H](Cc1ccccc1)[C@H](O)C(=O)N1CC(F)(F)C[C@H]1C(=O)NCc1ccccc1C [Example C44, {1-Benzyl-3-[4,4-difluoro-2-(2-methyl-benzylcarbamoyl)-pyrrolidin-1-yl]-2-hydroxy-3-oxo-propyl}-carbamic acid prop-2-ynyl ester]",14.8
5,"CC1(C)SCN(C(=O)[C@@H](O)[C@H](Cc2ccccc2)NC(=O)NCc2ccccc2Cl)C1C(=O)NCc1ccccc1Cl (stereo partly drawn) [Example B46, 3-{(2S,3S)-3-[3-(2-Chloro-benzyl)-ureido]-2-hydroxy-4-phenyl-butyryl}-5,5-dimethyl-thiazolidine-4-carboxylic acid 2-chloro-benzylamide]",93
6,"COc1ccccc1CNC(=O)NC(Cc1ccccc1)C(O)C(=O)N1CSC(C)(C)[C@H]1C(=O)NCc1ccccc1C (stereo in doubt) [Example B70, 3-{2-Hydroxy-3-[3-(2-methoxy-benzyl)-ureido]-4-phenyl-butyryl}-5,5-dimethyl-thiazolidine-4-carboxylic acid 2-methyl-benzylamide]",21
7,"Cc1ccc(CNC(=O)NC(Cc2ccccc2)C(O)C(=O)N2CSC(C)(C)[C@H]2C(=O)NCc2ccccc2C)c(C)c1 (stereo in doubt) [Example B69, 3-{3-[3-(2,4-Dimethyl-benzyl)-ureido]-2-hydroxy-4-phenyl-butyryl}-5,5-dimethyl-thiazolidine-4-carboxylic acid 2-methyl-benzylamide]",7.7
8,"COc1ccc(CNC(=O)NC(Cc2ccccc2)C(O)C(=O)N2CSC(C)(C)[C@H]2C(=O)NCc2ccc(OC)cc2)cc1 (stereo partly drawn) [Example B63, 33-{(2S,3S)-2-Hydroxy-3-[3-(4-methoxy-benzyl)-ureido]-4-phenyl-butanoyl}-5,5-dimethyl-thiazolidine-4-carboxylic acid 4-methoxy-benzylamide]",7.8

# Same assay, conditions: Ki, unit inferred
row,Compound,Ki [nM]
1,Cc1ccccc1CNC(=O)[C@H]1N(C(=O)[C@@H](O)[C@H](Cc2ccccc2)NC(=O)CCCN)CSC1(C)C,51
2,C#CCOC(=O)N[C@@H](Cc1ccccc1)[C@H](O)C(=O)N1CSC(C)(C)[C@H]1C(=O)NCc1cccc(CC)c1,3.8
3,Cc1ccccc1CNC(=O)[C@H]1N(C(=O)[C@@H](O)[C@H](Cc2ccccc2)NC(=O)Oc2ccc(Cl)cc2)CSC1(C)C,468
4,COc1cccc(CNC(=O)[C@H]2N(C(=O)[C@@H](O)[C@H](Cc3ccccc3)NC(=O)OC(C)(C)C)CSC2(C)C)c1,68
5,Cc1ccccc1CNC(=O)[C@H]1N(C(=O)[C@@H](O)[C@H](Cc2ccccc2)NC(=O)C2CCNCC2)CSC1(C)C,45
6,Cc1ccccc1CNC(=O)[C@H]1N(C(=O)[C@@H](O)[C@H](Cc2ccccc2)NC(=O)CCNC(=O)OC(C)(C)C)CSC1(C)C [drawing 1038],48
7,Cc1ccccc1CNC(=O)[C@H]1N(C(=O)[C@@H](O)[C@H](Cc2ccccc2)NC(=O)COc2cc(N(C)C)ccc2C)CSC1(C)C,8.1
8,CCCNC(=O)[C@@H]1CC(F)(F)CN1C(=O)[C@@H](O)[C@H](Cc1ccccc1)NC(=O)O[C@H]1CCOC1,42
9,Cc1ccccc1CNC(=O)C1N(C(=O)[C@@H](O)C(Cc2ccccc2)NC(=O)OCc2cccnc2)CSC1(C)C (stereo partly shown),27
10,CCCNC(=O)C1CC(F)(F)CN1C(=O)[C@@H](O)[C@H](Cc1ccccc1)NC(=O)c1cccc(OC(C)=O)c1C (stereo partly shown),85
11,CC1(C)SCN(C(=O)[C@@H](O)[C@H](Cc2ccccc2)NC(=O)[C@@H]2CCCO2)[C@@H]1C(=O)NC[C@H]1CCCO1,30
12,CC(C)(C)OC(=O)N[C@@H](Cc1ccccc1)[C@H](O)C(=O)N1CSC(C)(C)[C@H]1C(=O)NCc1ccccc1,21
13,C#CC(C)OC(=O)N[C@@H](Cc1ccccc1)[C@H](O)C(=O)N1CSC(C)(C)[C@H]1C(=O)NCc1ccccc1C (stereo partly shown),5.4
14,CCc1cccc(CNC(=O)[C@H]2N(C(=O)[C@@H](O)[C@H](Cc3ccccc3)NC(=O)NCc3ccc(OC)cc3)CSC2(C)C)c1,59
15,Cc1ccccc1CNC(=O)[C@H]1N(C(=O)[C@@H](O)[C@H](Cc2ccccc2)NC(=O)C2CCCN(C(=O)OC(C)(C)C)C2)CSC1(C)C (stereo partly shown),117
16,Cc1ccccc1CNC(=O)[C@@H]1N(C(=O)[C@@H](O)[C@H](Cc2ccccc2)NC(=O)c2cccc(O)c2C)CSC12CCC2,30
17,CC(C)(C)OC(=O)N[C@@H](Cc1ccccc1)[C@H](O)C(=O)N1CSC(C)(C)C1C(=O)NCc1c(F)cccc1F (stereo partly shown),54
18,Cc1ccccc1CNC(=O)[C@@H]1N(C(=O)[C@@H](O)[C@H](Cc2ccccc2)NC(=O)c2cccc(O)c2C)CSC12CCCCC2,11
19,CC1(C)SCN(C(=O)[C@@H](O)[C@H](Cc2ccccc2)NC(=O)CSc2nc[nH]n2)[C@@H]1C(=O)NCc1cccs1,13.9
20,Cc1ccccc1CNC(=O)[C@H]1N(C(=O)[C@@H](O)[C@H](Cc2ccccc2)NS(=O)(=O)c2ccccc2)CSC1(C)C,152
21,C/C=C(/C)C(=O)N[C@@H](Cc1ccccc1)[C@H](O)C(=O)N1CSC(C)(C)[C@H]1C(=O)NCc1ccccc1C,7.6
22,Cc1ccccc1CCC(=O)C1N(C(=O)[C@@H](O)C(Cc2ccccc2)NC(=O)C2CCC2)CSC1(C)C (stereo partly shown),4.4
23,Cc1c(O)cccc1C(=O)N[C@@H](Cc1ccccc1)[C@H](O)C(=O)N1CSC(C)(C)C1C(=O)NCCc1ccccn1 (stereo partly shown),134
24,Cc1ccccc1CNC(=O)[C@H]1N(C(=O)[C@@H](O)[C@H](Cc2ccccc2)NC(=O)/C=C/c2c(C)cccc2C)CSC1(C)C,99
25,Cc1c(O)cccc1C(=O)N[C@@H](Cc1ccccc1)[C@H](O)C(=O)C1CCC2(CCCC2)[C@@H]1C(=O)NC1=CCCCC1 (stereo partly shown),53
26,C/C(=C/c1ccccc1)C(=O)N[C@@H](Cc1ccccc1)[C@H](O)C(=O)N1CSC(C)(C)[C@H]1C(=O)NCc1ccccc1C,5
27,COc1ccc(CNC(=O)N[C@@H](Cc2ccccc2)[C@H](O)C(=O)N2CSC(C)(C)C2C(=O)NCc2ccc(OC)cc2)cc1 (stereo partly shown),7.8
28,CCNC(=O)C1c2ccccc2CN1C(=O)[C@@H](O)[C@H](Cc1ccccc1)NC(=O)c1c(C)noc1C (stereo partly shown),84
